Assay results as given in publication PMC12704579, “New Anticancer 4‐Aryldihydropyrimidinone‐5‐Carboxylates Targeting Hsp90” (Chemical Biology & Drug Design, 2025).
“And” between values parts separate entries of the source, which are not always exact repeats. Equal values may be shown once.

Key:
[1] = CellTiter-Blue cell viability assay, HEK-293 (24 h); format: cell-based, human; conditions: human, HEK-293 cells, CellTiter-Blue, 24 h incubation, 10 μM test compound, standardised to DMSO control
Procedure: (§1) Human Embryonic Kidney cells (HEK‐293) and human breast cancer cells (MCF‐7, MDA‐MB‐231 and HCC1954) were cultured in complete growth media: […] 1X (Gibco); 10% v/v Fetal Bovine Serum (FBS, Sigma Dorset UK) and L‐glutamine (2 mM, Invitrogen). SW‐480‐WT cells were maintained in selective media made up of Dulbecco's Modified Eagle Medium (Gibco), enriched with […] of Geneticin Selective Antibiotic (G418 Sulfate; Gibco, Thermo Fisher). Cells were incubated at a 5% CO2 atmosphere at 37°C.
(§2) Cells were cultured in 96‐well plates in 90 μL at a seeding density of 1 × 10^6 cells per well. Compound samples were prepared at different concentrations (1 mM, 100 μM, 10 μM, 1 μM, 100 nM, 10 nM) and 10 μL of each concentration was seeded in each well. Two different negative controls were used: DMSO 0.01% and 0.001%. Paclitaxel (30% w/v) was used as a positive control. Cells were treated for 24 h after which 20 μL of CellTitre‐Blue reagent (Promega, Southampton, UK) was added and incubated for 2 h at 37°C in 5% CO2. Fluorescence was measured at 560/590 nm on a Fluorostar Optima plate reader (BMG Labtech, Bucks, UK). Assay end points were normalised to 0% (DMSO only) and fitted to a semilog plot using at least n = 3 technical replicates (n = 6 for DMSO control and paclitaxel control) and N = 3 independent replicates. The curve fit was performed using the GraphPad Prism software and the standard Hill equation.
(§3) In view of previous reports on Hsp90 inhibitors and their effects on cancer cell viability (Eachkoti et al. [2014]) and clonogenicity (Kinzel et al. [2016]), new compounds were tested for inhibition of cell viability within both non‐tumourigenic (HEK‐293) and breast cancer cell lines (MDA‐MB‐231) at a fixed concentration of 10 μM. The well‐established CellTiter‐Blue endpoint assay was used to assess cell viability. New compounds were also assessed in a colony forming assay (MCF‐7 breast cancer cell line), used as an efficacy screening to provide an indication of the inhibition of clonogenicity for these small molecules (Table 1).

HEK-293 cells = assay: as above; format: cell-based, human; conditions: Homo sapiens, HEK293; 24 h incubation time
Procedure: as §1, §2, §3

MDA-MB-231 cells = assay: CellTiter-Blue cell viability assay, MDA-MB-231 (24 h); format: cell-based, human; conditions: for GI50: 24 h incubation time; for viability at 10 µM / % Viability (MDA-MB-231, 10 μM): CellTiter-Blue, 24 h incubation, 10 μM test compound, standardised to DMSO control
Procedure: as §1, §2, §3

MCF-7 cells = assay: Colony forming assay, MCF-7; format: cell-based, human; conditions: for IC50: Homo sapiens, MCF7, 168 h, 7 days; for % Clonogenicity (MCF-7, 10 μM): percentage of survival colonies, 7-day incubation, standardised to DMSO control
Procedure: as §1
Cells were seeded in a 12‐well plate at 400 cells per well. One hour after the seeding of the cells, compounds (1 mM, 100 μM, 10 μM, 1 μM, 100 nM, 10 nM) or vehicle were added into the wells in triplicate (DMSO vehicle 0.1% and 1%). After 7 days, colonies were stained with 350 μL of crystal violet solution, incubated for 30 min at room temperature, then wells were washed in water and dried. At least the best 3 independent experiments out of 5 independent repeats were used to perform the statistical analysis of the results. Colonies were counted by GelCount Colony Counter (Oxford Optronix Ltd.) using the GelCount 1.1.8.0 software. Assay end points were normalised to 0% (DMSO only) and fitted to a semi‐log plot using at least n = 3 technical replicates (n = 6 for DMSO control and N = 3 independent replicates). The curve fit was performed using GraphPad Prism.
as §3

[2] = target: T1, Recombinant human Hsp90 alpha protein (Homo sapiens, UniProt P07900); assay: Transcreener ADP FP Hsp90 ATPase assay; format: biochemical; conditions: Recombinant human HSP90, 100 μM ATP; read-out: ATPase assay on rh-Hsp90 IC50
T1 construct: human full‐length protein, expressed in Escherichia coli; His tag (C); purchased Abcam ab80369; host or cells: Escherichia coli
Procedure: Transcreener ADP (cat. no. 3004‐1K) and ADP2 (cat. no. 3010‐1K) FP assay kits were obtained from Bellbrook Laboratories. Recombinant human Hsp90 alpha protein (active), human full‐length protein, expressed in Escherichia coli with > 90% purity and C‐terminus His tag, was purchased from Abcam (ab80369). All FP assays were carried out in black, 384‐well, low‐volume, polystyrene nonbinding microplates from Corning Life Sciences. All basic buffer components were obtained from Sigma‐Aldrich Chemical Co. 17‐AAG (Figure 1) was obtained from Abcam. Using the Transcreener ADP FP kit, the conditions for the recombinant human Hsp90 ATPase reaction were 50 mM HEPES (pH 7.4), 20 mM KCl, 2 mM EGTA, 4 mM MgCl2, and 0.01% Brij‐35 in a 10‐μL total assay volume. The final assay concentration of ATP was 100 μM for Hsp90. Due to the relatively low level of ATPase activity compared with other enzymes, the plate was incubated at 37°C and run over 1, 2 and 3 h time points. The reaction was stopped, and the ADP was detected by adding 10 μL of 50 mM HEPES (pH 7.4), 400 mM NaCl, 20 mM EDTA, 0.01% Brij35, 75 μg/mL anti‐ADP monoclonal antibody, and 4 nM ADP far red tracer. The plate was sealed, centrifuged at 600 g for 1 min, and left at room temperature for 1 h. FP readings for the Hsp90 ATPase Transcreener assays were performed on a Clariostar plate reader ([…]). A blank mP signal composed of protein, antibody, labelled ADP, but no ATP substrate gave similar mP values to those seen in the no‐protein controls. The upper limit of the assay window was defined by a no‐protein control, and the mP in the presence of heat shock protein was subtracted from this control to generate a change in polarisation (ΔmP), which was plotted on the activity graphs. Therefore, the data take into account the spontaneous hydrolysis of ATP. Each value is the mean of triplicate determinations with standard deviations (SD) shown. IC50 values were calculated using GraphPad Prism software with the nonlinear regression curve fitted to the log (inhibitor concentration) against the raw mP values on the linear portion of the standard curve.

Row | SMILES | viability at 24 h, 10 µM [1] [%] | GI50 (HEK-293 cells) [µM] | GI50 (MDA-MB-231 cells; Homo sapiens, MDA-MB-231, 24 h) [µM] | viability at 10 µM (MDA-MB-231 cells; Homo sapiens, MDA-MB-231, 24 h) [%] | IC50 (MCF-7 cells) [µM] | % Clonogenicity (MCF-7, 10 μM) (MCF-7 cells) | IC50 [2] [µM] | % Viability (MDA-MB-231, 10 μM) (MDA-MB-231 cells) [%] | GI50 (MDA-MB-231 cells) [µM]
1 | COc1ccc(C2NC(=O)NC(C)=C2C(=O)OCc2ccccc2)c(F)c1 (centres unmarked) [Compound 5a, Benzyl 4‐(2‐Fluoro‐4‐Methoxyphenyl)‐6‐Methyl‐2‐Oxo‐1,2,3,4‐Tetrahydropyrimidine‐5‐Carboxylate] | 90.6 ± 3.35 | 71.5 | 86.2 | 91.33 ± 0.64 | 5.03 | 71.87 ± 4.77% | 5.36 | – | –
2 | COc1ccc(C2NC(=O)NC(C)=C2C(=O)OCc2ccc(OC)c(OC)c2)c(F)c1 (centres unmarked) [Compound 5b, 3,4‐Dimethoxybenzyl 4‐(2‐Fluoro‐4‐Methoxyphenyl)‐6‐Methyl‐2‐Oxo‐1,2,3,4‐Tetrahydropyrimidine‐5‐Carboxylate] | 99.9 ± 1.5 | 44.9 | 72.1 | 89.7 ± 1.37 | 0.68 | 71.39 ± 2.94% | 13.1 | – | –
3 | COc1ccc(COC(=O)C2=C(C)NC(=O)NC2c2ccc(Cl)cc2)cc1OC (centres unmarked) [Compound 5c, 3,4‐Dimethoxybenzyl‐4‐(4‐Chlorophenyl)‐6‐Methyl‐2‐Oxo‐1,2,3,4‐Tetrahydropyrimidine‐5‐Carboxylate] | 99.4 ± 3.16 | 12.6 | 22.7 | < 80 | 2.46 | 64.29 ± 3.69% | 4.28 | 73.55 ± 3.50 | –
4 | CC1=C(C(=O)OCc2ccccc2)C(c2ccc(OC(F)(F)F)cc2F)NC(=O)N1 (centres unmarked) [Compound 5f, Benzyl 4‐(2‐Fluoro‐4‐(Trifluoromethoxy)phenyl)‐6‐Methyl‐2‐Oxo‐1,2,3,4‐Tetrahydropyrimidine‐5‐Carboxylate] | 95.1 ± 3.82 | 16.4 | 98.9 | 85.7 ± 2.65 | 2.29 | 72.41 ± 3.21% | 13.7 | – | –
5 | COc1ccc(COC(=O)C2=C(C)NC(=O)NC2c2cccc(Cl)c2)cc1OC (centres unmarked) [Compound 5g, 3,4‐Dimethoxybenzyl 4‐(3‐Chlorophenyl)‐6‐Methyl‐2‐Oxo‐1,2,3,4‐Tetrahydropyrimidine‐5‐Carboxylate] | 96.7 ± 3.77 | 39.1 | 19.3 | < 80 | 0.83 | 50.04 ± 2.3% | 32.6 | 72.16 ± 7.20 | –
6 | COc1cccc(COC(=O)C2=C(C)NC(=O)NC2c2ccc(Cl)cc2)c1 (centres unmarked) [Compound 5h, 3‐Methoxybenzyl 4‐(4‐Chlorophenyl)‐6‐Methyl‐2‐Oxo‐1,2,3,4‐Tetrahydropyrimidine‐5‐Carboxylate] | 81 ± 2.36 | 12.3 | 23.7 | 88 ± 3.1 | 9.08 | 42.34 ± 4.80% | 6.47 | – | –
7 | COc1ccc(COC(=O)C2=C(C)NC(=O)NC2c2ccc(Cl)cc2)cc1 (centres unmarked) [Compound 5i, 4‐Methoxybenzyl 4‐(4‐Chlorophenyl)‐6‐Methyl‐2‐Oxo‐1,2,3,4‐Tetrahydropyrimidine‐5‐Carboxylate] | 94.3 ± 2.95 | 98.5 | 40 | 83.26 ± 0.69 | 0.56 | 8.39% and 8.39 ± 2.84% | 9.59 | – | 40
8 | COc1ccc(COC(=O)C2=C(C)NC(=O)NC2c2ccccc2Cl)cc1OC (centres unmarked) [Compound 5j, 3,4‐Dimethoxybenzyl 4‐(2‐Chlorophenyl)‐6‐Methyl‐2‐Oxo‐1,2,3,4‐Tetrahydropyrimidine‐5‐Carboxylate] | 93 ± 2.59 | 58 | 65.7 | < 80 | 3.49 | 58.18 ± 4.42% | 32.5 | 76.50 ± 4.28 | –
9 | COc1ccc(C2NC(=O)NC(C)=C2C(=O)OCc2ccc3c(c2)OCO3)cc1 (centres unmarked) [Compound 5k, Benzo[d] [1,3] Dioxol‐5‐ylmethyl 4‐(4‐Methoxyphenyl)‐6‐Methyl‐2‐Oxo‐1,2,3,4‐Tetrahydropyrimidine‐5‐Carboxylate] | 98.6 ± 1.31 | 63 | 77.2 | 98.7 ± 2.6 | 2.46 | 99.85 ± 3.27% | 20.2 | – | –
10 | CC1=C(C(=O)OCc2ccccc2)C(c2ccc(F)cc2)NC(=O)N1 (centres unmarked) [Compound 5l, Benzyl 4‐(4‐Fluorophenyl)‐6‐Methyl‐2‐Oxo‐1,2,3,4‐Tetrahydropyrimidine‐5‐Carboxylate] | 98 ± 1.89 | 52.9 | 86.6 | 100 ± 2.96 | 0.89 | 82.62 ± 2.93% | 22.9 | – | –
